# Patent publication US20240197839A1, “Recombinant Human Acid Alpha-Glucosidase and Uses Thereof” (Amicus Therapeutics, Inc., priority 2021, published 2024)
# Legend:
# Gaa KO mice [1] = assay: muscle biomarker analysis (LAMP1, LC3, dysferlin) in Gaa KO mice; assay type: in vivo; conditions: FIG. 15B
# Procedure: The therapeutic effects of ATB200 and AT2221 were evaluated and compared against those of Alglucosidase alfa in Gaa KO mice. For the study, male Gaa KO (3- to 4-month old) and age-matched wild-type (WT) mice were used. Alglucosidase alfa was administered via bolus tail vein intravenous (IV) injection. In the co-administration regimen, AT2221 was administered via oral gavage (PO) 30 minutes prior to the IV injection of ATB200. Treatment was given biweekly. Treated mice were sacrificed after 14 days from the last administration and various tissues were collected for further analysis. Table 7 summarizes the study design:
# Tissue samples were also analyzed for biomarker changes following the methods discussed in: Khanna R, et al. (2012), “The pharmacological chaperone AT2220 increases recombinant human acid α-glucosidase uptake and glycogen reduction in a mouse model of Pompe disease,” Plos One 7(7): e40776; and Khanna, R et al. (2014), “The Pharmacological Chaperone AT2220 Increases the Specific Activity and Lysosomal Delivery of Mutant Acid α-Glucosidase, and Promotes Glycogen Reduction in a Transgenic Mouse Model of Pompe Disease,” PLoS ONE 9(7): e102092.
# [2] = test system: subjects with late-onset Pompe disease (LOPD); conditions: cited from earlier work
# [3] = test system: adult subjects with late-onset Pompe disease (LOPD); assay: ATB200-03 (PROPEL): safety assessments; assay type: in vivo, human; conditions: 52-week treatment
# From the text: Safety assessments included monitoring of adverse events (AEs), including infusion associated reactions (IARs), clinical laboratory tests (chemistry, hematology, and urinalysis), vital signs, physical examinations including weight, electrocardiograms (ECGs), and immunogenicity. Concomitant medications and nondrug therapies were also be recorded.
# The safety profile of ATB200/AT2221 was characterized using incidence of treatment emergent adverse events (TEAEs), serious adverse events (SAEs), and AEs leading to discontinuation of study drug, frequency and severity of immediate and late IARs, and any abnormalities noted in other safety assessments. The impact of immunogenicity to ATB200 and alglucosidase alfa on safety and efficacy was also assessed.
# Safety Analyses. Safety data was summarized using counts and percentages for categorical data and descriptive statistics (mean, standard deviation, median, minimum, maximum) for continuous data.
# Gaa KO mice [4] = assay: single fiber analysis (LAMP1/LC3 co-immunofluorescence, white gastrocnemius); assay type: in vivo; conditions: Gaa KO mice
# From the text: FIG. 17 depicts co-immunofluorescent staining of LAMP1 (green) (see for example, “B”) and LC3 (red) (see, for example, “A”) in single fibers isolated from the white gastrocnemius of Gaa KO mice treated with a vehicle, alglucosidase alfa, or ATB200. “C” depicts clearance of autophagic debris and absence of enlarged lysosome. A minimum of 30 fibers were examined from each animal.
# As a result, a significant portion of muscle fibers analyzed (36-60%) from ATB200-treated mice appeared normal or near-normal.
# [5] = test system: adult subjects with late-onset Pompe disease (LOPD); assay: ATB200-03 (PROPEL): Gait, Stair, Gower, Chair (GSGC) test; assay type: in vivo, human; conditions: overall population, 52 weeks (p<0.05)
# From the text: (§1) The ATB200-03 trial was a phase 3 double-blind, randomized, multicenter, international study of ATB200/AT2221 in adult subjects with late-onset Pompe disease (LOPD) who had received enzyme replacement therapy with alglucosidase alfa (i.e., ERT-experienced) or who had never received ERT (i.e., ERT naïve), compared with alglucosidase alfa/placebo.
# (§2) Efficacy assessments (i.e., functional assessments) included evaluation of ambulatory function (6MWT), motor function tests (Gait, Stair, Gower, and Chair maneuver (GSGC) test and Timed Up and Go (TUG) test), muscle strength (manual muscle testing and quantitative muscle testing), and pulmonary function tests (FVC, SVC, MIP, MEP, and SNIP). Patient reported outcomes (Rasch-built Pompe-specific Activity (R Pact) Scale, EuroQol 5 Dimensions 5 Levels Instrument (EQ-5D-5L), Patient-Reported Outcomes Measurement Information System (PROMIS®) instruments for physical function, fatigue, dyspnea, and upper extremity, and Subject's Global Impression of Change) were recorded. The Physician's Global Impression of Change were also performed.
# Key secondary efficacy endpoints in a pre-specified hierarchical order of importance were as follows. […]
# [6] = test system: adult subjects with late-onset Pompe disease (LOPD); assay: ATB200-03 (PROPEL): urinary hexose tetrasaccharide (Hex4) biomarker; assay type: in vivo, human; conditions: after 52 weeks, combined ERT switch and ERT naïve population (p<0.001)
# From the text: as §1
# (§3) Pharmacodynamic assessments included measurement of biomarkers of muscle injury (creatine kinase (CK) and disease substrate (urinary hexose tetrasaccharide (Hex4)). Sparse blood samples were collected for determination of total GAA protein levels and AT2221 concentrations in plasma for a population PK analysis in ERT-experienced subjects. Serial blood sampling for characterization of the PK profile of total GAA protein and AT2221 were done in ERT-naïve subjects.
# (§4) Pharmacodynamic endpoints were as follows: • change from baseline to Week 52 in serum CK level • change from baseline to Week 52 in urinary Hex4 level
# [7] = test system: adult subjects with late-onset Pompe disease (LOPD); assay: ATB200-03 (PROPEL): creatine kinase (CK) biomarker of muscle injury; assay type: in vivo, human; conditions: after 52 weeks, overall population (p<0.001)
# From the text: as §1, §3, §4
# [8] = test system: adult subjects with late-onset Pompe disease (LOPD); assay: ATB200-03 (PROPEL) phase 3 trial: 6-minute walk test; assay type: in vivo, human
# From the text: as §1
# Eligible subjects were randomly assigned in a 2:1 ratio to receive ATB200/AT2221 or alglucosidase alfa/placebo and stratified by ERT status (ERT-experienced, ERT-naïve) and baseline 6-minute walk distance (6MWD) (75 to <150 meters, 150 to <400 meters, ≥400 meters).
# as §2
# The primary efficacy endpoint was the change from baseline to Week 52 in 6MWD. The primary endpoint was tested for superiority of ATB200/AT2221 vs Alglucosidase alfa/placebo, using mixed-effect model for repeated measures (MMRM) and pre-specified nonparametric test in case of violation of normality.
# Efficacy Analyses. The primary efficacy endpoint (i.e., change from baseline to Week 52 in 6MWD) was analyzed using a parametric analysis of covariance (ANCOVA) model to compare between the new treatment and the control. This model would typically adjust for baseline 6MWD (as a continuous covariate), and the 2 factors used to stratify randomization: ERT status (ERT naïve vs. ERT-experienced) and baseline 6MWD (75 to <150 meters, 150 to <400 meters, ≥400 meters). However, the baseline 6MWD could not be used in the model twice (both as a continuous and a categorical variable) due to the expected high point biserial correlation between them. Thus, the 6MWD continuous variable remained in the model but the categorical 6MWD was removed. The ANCOVA model then had terms for treatment, baseline 6MWD (continuous), and ERT status (categorical).
# (§5) PROPEL was a 52-week, double-blind randomized global study designed to assess the efficacy, safety and tolerability of AT-GAA compared to the current standard of care, alglucosidase alfa, an enzyme replacement therapy (ERT). The study enrolled 123 adult Pompe patients who still had the ability to walk and to breathe without mechanical ventilation and was conducted at 62 clinical sites in 24 countries on 5 continents. It was the largest controlled clinical study ever conducted in a lysosomal disorder.
# [9] = test system: adult subjects with late-onset Pompe disease (LOPD); assay: ATB200-03 (PROPEL) phase 3 trial: sitting forced vital capacity; assay type: in vivo, human
# From the text: as §1, §2
# Key secondary efficacy endpoints in a pre-specified hierarchical order of importance were as follows. These secondary endpoints were analyzed using analysis of covariance (ANCOVA) model with last observation carried forward (ITT LOCF). • change from baseline to Week 52 in sitting FVC (% predicted) • change from baseline to Week 52 in the manual muscle test score for the lower extremities • change from baseline to Week 52 in the total score for the PROMIS—physical function • change from baseline to Week 52 in the total score for the PROMIS—fatigue • change from baseline to Week 52 in GSGC total score
# as §5
# [10] = ERT switch (ERT-experienced) population (n=95)
# [11] = ERT treatment naïve population (n=27), listed as Alglucosidase alfa
# [12] = overall ERT switch and ERT naïve population (n=122)
substance,measurement,setting,value
"[199-arginine,223-histidine]prepro-α-glucosidase (human) [alglucosidase alfa]",LC3 II level by western blot (autophagy),Gaa KO mice [1],modest
same,subjects who did not show an initial improvement during treatment,[2]; 368 LOPD subjects from published studies,> 30%
same,duration of improvements in initial responders,[2]; longer-term studies,approximately 2 years
same,patients who discontinued treatment due to an adverse event,[3],2.6%
same,Injection associated reactions (IARs) reported,[3]; share of participants,26%
same,Fibers with Autophagy Buildup,Gaa KO mice [4],>90%
same,Fibers with Normal or Near-normal Appearance,Gaa KO mice [4],<10%
same,GSGC scores,[5],worsening
same,mean change in urine Hex-4,[6],+11.0%
same,mean change in CK,[7],+15.6%
same,6MWD CFBL at Week 52,[8]; [10],0.0 m
same,6MWD CFBL at Week 52,[8]; ERT treatment naïve population (n=27),38 m
same,6MWD CFBL at Week 52,[8]; [11],+38.3 (11.1) m
same,6MWD CFBL at Week 52,[8]; [12],7 m
same,6MWD CFBL at Week 52,"[8]; overall ERT switch and ERT naïve population (n=122), listed as Alglucosidase alfa",+7.2 m
same,FVC CFBL at Week 52,[9]; [10],−4.0 (0.9) % predicted
same,FVC CFBL at Week 52,[9]; [11],−3.6 (1.8) % predicted
same,FVC CFBL at Week 52,"[9]; ERT treatment naïve population (n=27), listed as alglucosidase alpha",−3.6 % predicted
same,absolute decline in percent-predicted FVC,"[9]; after 52 weeks, combined population",4.0%
same,absolute decline in percent-predicted FVC,"[9]; over the course of the year, ERT switch patients",4.0%
same,FVC CFBL at Week 52,[9]; [12],−4.0 (0.8) % predicted
